Measured values as given in patent US20040019060A1, “Sigma receptor ligands and their medical uses” (priority 2000, published 2004).
Counter-ions that a name gives are not always drawn.

Legend:
[1] = system: human microvascular endothelial cells (HMEC-1); experiment: Proliferation assay in HMEC-1 (phosphatase activity); type: cell-based; settings: 168 h, read-out: IC50 (dose required to inhibit proliferation to 50% of control), HMEC-1, FIG. 2a, assay on day 7
Method: HMEC-1 (immortalised human microvascular endothelial cells) obtained from Dr Colin Porter, Chester Beatty Laboratories were grown in TCS Biologicals Microvascular Endothelial Cell Basal Medium (ZHM-2946) with supplement (ZHS-8947). This contains heparin, hydrocortisone, human EGF, human bFGF, dibutyryl cyclic AMP (concentrations not disclosed by the Company) with added 5% FCS, pH 7.4.
The cells were seeded at 2×10^4 ml in 96 well microtitre plates on day 0, and sigma ligands were added in fresh medium on day 1. […] PCS at the concentrations indicated was present throughout the assay. Each concentration of drug was assayed in triplicate, and the vehicle concentration was kept constant.
Viable cells present at the end of the assay were estimated by determining phosphatase activity as follows: 100Xl of paranitrophenylphosphate (Sigma) at 3 mg/ml in phosphate buffer pH 5.5 containing 0.1% Triton X100 was added to wells and incubated for 2hr at 37° C. The reaction was stopped with 1N NaOH. Released paranitrophenol, indicative of attached cell number, was measured by reading the absorbance at 405 nm in a Titertek multiscan. “Background” counts (which were very low) were subtracted, and the survival in drug treated wells compared with that of control wells. The 100% value is the mean absorbance of control wells treated with vehicle alone; the 0% value is that of wells containing medium only.

[2] = Pharmacokinetics in mice (LCMS of plasma, liver, spleen); type: in vivo, Balb/C mice
Method: Prior to undertaking any in vivo experiments with Rimcazole to study effects on tumour growth and angiogenesis, it was necessary to determine its pharmacokinetics in order that doses in the active range could be administered. Rimcazole (dissolved in water) was administered at 40 mg/kg i.p to Balb/C mice. Heparinised blood samples were taken at 5, 15 and 30 minutes, 1,2,4,6, and 24 hours and plasma separated. Tissue samples were also taken at some time points for analysis. Rimcazole samples were initially analysed by LCMS.
Column: Supelco 50×4.6 mm ABZ+ with 5 μ packing.
Mobile phase: A=HPLC grade methanol, B=0.1% formic acid in water.
Full scan mode: mass range analysed 50 to 850 amu.
MSMS mode: filtered ions were 322 (Rimcazole), 338 (Rimcazole+oxygen), and 514 (glucuronide of 338 metabolite).

[3] = system: MDA MB 435 human breast carcinoma xenografts; experiment: MDA MB 435 breast carcinoma xenograft growth and angiogenesis; type: in vivo, NCr athymic mice; settings: for Tumour growth (increase in volume relative to start of treatment): FIG. 8a
Method: MDA MB 435 human breast carcinoma cells (as a model of hormone-insensitive disease) were grown in tissue culture to 70% confluence, harvested with trypsin:EDTA, washed, resuspended in DMEM and injected bilaterally into the inguinal fat pads of 6 week old female NCr athymic mice (orthotopic site) at 1.5×10^6 cells in 50 μl. The mice were housed in filter boxes in […] laminar flow cabinets and fed sterilized food and water. All procedures were carried out in class 1 laminar flow hoods using sterile equipment and reagents. On day 7, the tumours were measured with vernier calipers across two perpendicular diameters, and the mice were randomised into experimental groups and treated as follows: 1. […] 2. […] 3. Rimcazole 15 mg/kg/day (as above). […] The preparations were made up freshly each day, and the animals dosed intraperitoneally for 24 days. Animals were observed daily and weighed regularly to check that there were no adverse effects of treatment. […] Differences in growth were compared using the Mann-Whitney U test. At termination of the experiment the mice were killed and tumours excised and weighed. Blood, liver and tumour samples were snap frozen for analysis of drug levels by LCMS/MS. Tumour samples were also cryopreserved, and sections cut and stained with MECA-32 (Developmental Studies Hybridoma Unit; rat anti mouse endothelium) visualised with HRP conjugated goat-anti rat (Star 72, Serotec) to estimate blood vessel density.

In the case of `C[C@@H]1CN(CCCn2c3ccccc3c3ccccc32)C[C@H](C)N1` [Rimcazole, cis-9-[3,5-dimethyl-1-piperazinyl) propyl]carbazole dihydrochloride], the IC50 [1] is reported as less than 5 µM, the “Tissue levels relative to plasma” value ([2]; Rimcazole 40 mg/kg i.p., mice, spleen and liver) is reported as “higher in spleen and liver than in plasma” and the “Plasma levels relative to IC50” value ([2]; once daily dosing at 40 mg/kg) is reported as “plasma levels above the IC50 for a significant period”. The “Weights of excised tumours” value ([3]; 15 mg/kg dose, FIG. 8b) was “did not achieve statistical significance”, the “Tumour growth (increase in volume relative to start of treatment)” value ([3]; 15 mg/kg/day i.p. for 24 days, p=0.0228 Mann-Whitney U test) was “significant tumour growth retardation” and the “Tumour growth (increase in volume relative to start of treatment)” value ([3]; 30 mg/kg/day i.p. for 24 days, p=0.0436 Mann-Whitney U test) was “significant tumour growth retardation”. The “Weights of excised tumours” value ([3]; 30 mg/kg/day, p=0.0239, FIG. 8b) was “significantly less”, the “Health and body weight gain of mice during therapy” value ([3]; 15 and 30 mg/kg/day for 24 days, data not shown) was “remained healthy throughout therapy and gained weight at the same rate as controls” and the “Vascular density in excised tumours” value ([3]; both doses (15 and 30 mg/kg/day), FIG. 8c) was “significantly inhibited”.
